Assay results from patent US20060009478A1, “Methods for the treatment of back pain” (priority 2003, published 2006).
Like-named read-outs stand apart in the source and are kept apart here.

Assays:
[1] = system: patients with moderate to severe chronic pain due to osteoarthritis of the hip or knee; assay: Vital signs, clinical laboratory tests, EKG (QTc interval), 3-week osteoarthritis study; assay type: in vivo, human; settings: 3-week treatment
[2] = system: patients with moderate to severe chronic low back pain; assay: Quality of analgesia, low back pain study; assay type: in vivo, human; settings: LOCF, ITT
Protocol: Quality of analgesia was assessed at clinic visits during the titration and fixed-dose periods. The patient was prompted with the question, “How would you rate the quality of your pain relief at this time?” and responses were selected from poor, fair, good, very good, and excellent.
Global assessment and quality of analgesia ratings were summarized descriptively by treatment group for both the titration and fixed-dose periods. Treatments were compared at each visit in the fixed-dose period, globally and in pairwise fashion, using the Cochran-Mantel-Haenszel row mean scores (CMH-RMS) test, using equally spaced scores.

[3] = system: patients with moderate to severe chronic pain due to osteoarthritis of the hip or knee
[4] = 3-week study, intent to treat population
[5] = Week 1, Days 1-3: 10 mg OXY/d, Days 4-8: 20 mg OXY/d

## COc1ccc2c3c1O[C@H]1C(=O)CC[C@@]4(O)[C@@H](C2)N(C)CC[C@]314 [OXY QID, oxycodone]
[1]
  Effects on vital signs, laboratory safety tests or QTc interval changes: no clinically meaningful effects
[2]; fixed dose period week 1
  Quality of analgesia EXCELLENT (4), number of patients: 25
  Quality of analgesia EXCELLENT (4), percent of patients: 12.1%
  Quality of analgesia FAIR (1), number of patients: 26
  Quality of analgesia FAIR (1), percent of patients: 12.6%
  Quality of analgesia GOOD (2), number of patients: 69
  Quality of analgesia GOOD (2), percent of patients: 33.5%
  Quality of analgesia POOR (0), number of patients: 33
  Quality of analgesia POOR (0), percent of patients: 16.0%
  Quality of analgesia VERY GOOD (3), number of patients: 52
  Quality of analgesia VERY GOOD (3), percent of patients: 25.2%
[2]; fixed dose period week 2
  Quality of analgesia EXCELLENT (4), number of patients: 24
  Quality of analgesia EXCELLENT (4), percent of patients: 11.7%
  Quality of analgesia FAIR (1), number of patients: 27
  Quality of analgesia FAIR (1), percent of patients: 13.1%
  Quality of analgesia GOOD (2), number of patients: 70
  Quality of analgesia GOOD (2), percent of patients: 34.0%
  Quality of analgesia POOR (0), number of patients: 32
  Quality of analgesia POOR (0), percent of patients: 15.5%
  Quality of analgesia VERY GOOD (3), number of patients: 52
  Quality of analgesia VERY GOOD (3), percent of patients: 25.2%
[2]; fixed dose period week 4
  Quality of analgesia EXCELLENT (4), number of patients: 20
  Quality of analgesia EXCELLENT (4), percent of patients: 9.7%
  Quality of analgesia FAIR (1), number of patients: 28
  Quality of analgesia FAIR (1), percent of patients: 13.6%
  Quality of analgesia GOOD (2), number of patients: 63
  Quality of analgesia GOOD (2), percent of patients: 30.6%
  Quality of analgesia POOR (0), number of patients: 35
  Quality of analgesia POOR (0), percent of patients: 17.0%
  Quality of analgesia VERY GOOD (3), number of patients: 59
  Quality of analgesia VERY GOOD (3), percent of patients: 28.6%
[2]; fixed dose period week 6
  Quality of analgesia EXCELLENT (4), number of patients: 24
  Quality of analgesia EXCELLENT (4), percent of patients: 11.7%
  Quality of analgesia FAIR (1), number of patients: 34
  Quality of analgesia FAIR (1), percent of patients: 16.5%
  Quality of analgesia GOOD (2), number of patients: 67
  Quality of analgesia GOOD (2), percent of patients: 32.5%
  Quality of analgesia POOR (0), number of patients: 36
  Quality of analgesia POOR (0), percent of patients: 17.5%
  Quality of analgesia VERY GOOD (3), number of patients: 44
  Quality of analgesia VERY GOOD (3), percent of patients: 21.4%
[2]; fixed dose period week 8
  Quality of analgesia EXCELLENT (4), number of patients: 24
  Quality of analgesia EXCELLENT (4), percent of patients: 11.7%
  Quality of analgesia FAIR (1), number of patients: 35
  Quality of analgesia FAIR (1), percent of patients: 17.0%
  Quality of analgesia GOOD (2), number of patients: 72
  Quality of analgesia GOOD (2), percent of patients: 35.0%
  Quality of analgesia POOR (0), number of patients: 33
  Quality of analgesia POOR (0), percent of patients: 16.0%
  Quality of analgesia VERY GOOD (3), number of patients: 41
  Quality of analgesia VERY GOOD (3), percent of patients: 19.9%
[2]; fixed dose period week 10
  Quality of analgesia EXCELLENT (4), number of patients: 24
  Quality of analgesia EXCELLENT (4), percent of patients: 11.7%
  Quality of analgesia FAIR (1), number of patients: 35
  Quality of analgesia FAIR (1), percent of patients: 17.0%
  Quality of analgesia GOOD (2), number of patients: 66
  Quality of analgesia GOOD (2), percent of patients: 32.0%
  Quality of analgesia POOR (0), number of patients: 35
  Quality of analgesia POOR (0), percent of patients: 17.0%
  Quality of analgesia VERY GOOD (3), number of patients: 45
  Quality of analgesia VERY GOOD (3), percent of patients: 21.8%
[2]; fixed dose period week 12
  Quality of analgesia EXCELLENT (4), number of patients: 21
  Quality of analgesia EXCELLENT (4), percent of patients: 10.2%
  Quality of analgesia FAIR (1), number of patients: 40
  Quality of analgesia FAIR (1), percent of patients: 19.4%
  Quality of analgesia GOOD (2), number of patients: 64
  Quality of analgesia GOOD (2), percent of patients: 31.1%
  Quality of analgesia POOR (0), number of patients: 37
  Quality of analgesia POOR (0), percent of patients: 18.0%
  Quality of analgesia VERY GOOD (3), number of patients: 43
  Quality of analgesia VERY GOOD (3), percent of patients: 20.9%
[3]; [4]
  Discontinuation of treatment because of adverse event: Any adverse event, % of patients: 28.4%
  Discontinuation of treatment because of adverse event: Any adverse event, number of patients: 29
  Discontinuation of treatment because of adverse event: Constipation, % of patients: 1.0%
  Discontinuation of treatment because of adverse event: Constipation, number of patients: 1
  Discontinuation of treatment because of adverse event: Diarrhea, % of patients: 0.0%
  Discontinuation of treatment because of adverse event: Diarrhea, number of patients: 0
  Discontinuation of treatment because of adverse event: Dizziness, % of patients: 1.0%
  Discontinuation of treatment because of adverse event: Dizziness, number of patients: 1
  Discontinuation of treatment because of adverse event: Euphoric mood, % of patients: 0.0%
  Discontinuation of treatment because of adverse event: Euphoric mood, number of patients: 0
  Discontinuation of treatment because of adverse event: Eye disorders, % of patients: 0.0%
  Discontinuation of treatment because of adverse event: Eye disorders, number of patients: 0
  Discontinuation of treatment because of adverse event: Gastrointestinal disorders, % of patients: 12.7%
  Discontinuation of treatment because of adverse event: Gastrointestinal disorders, number of patients: 13
  Discontinuation of treatment because of adverse event: General disorders and administration site conditions, % of patients: 2.0%
  Discontinuation of treatment because of adverse event: General disorders and administration site conditions, number of patients: 2
  Discontinuation of treatment because of adverse event: Headache, % of patients: 2.0%
  Discontinuation of treatment because of adverse event: Headache, number of patients: 2
  Discontinuation of treatment because of adverse event: Lethargy, % of patients: 0.0%
  Discontinuation of treatment because of adverse event: Lethargy, number of patients: 0
  Discontinuation of treatment because of adverse event: Nausea, % of patients: 6.9%
  Discontinuation of treatment because of adverse event: Nausea, number of patients: 7
  Discontinuation of treatment because of adverse event: Nervous system disorders, % of patients: 7.8%
  Discontinuation of treatment because of adverse event: Nervous system disorders, number of patients: 8
  Discontinuation of treatment because of adverse event: Pruritus, % of patients: 1.0%
  Discontinuation of treatment because of adverse event: Pruritus, number of patients: 1
  Discontinuation of treatment because of adverse event: Psychiatric disorders, % of patients: 1.0%
  Discontinuation of treatment because of adverse event: Psychiatric disorders, number of patients: 1
  Discontinuation of treatment because of adverse event: Sedation, % of patients: 2.0%
  Discontinuation of treatment because of adverse event: Sedation, number of patients: 2
  Discontinuation of treatment because of adverse event: Skin and subcutaneous tissue disorders, % of patients: 2.9%
  Discontinuation of treatment because of adverse event: Skin and subcutaneous tissue disorders, number of patients: 3
  Discontinuation of treatment because of adverse event: Sommolence, % of patients: 2.0%
  Discontinuation of treatment because of adverse event: Sommolence, number of patients: 2
  Discontinuation of treatment because of adverse event: Upper abdominal pain, % of patients: 0.0%
  Discontinuation of treatment because of adverse event: Upper abdominal pain, number of patients: 0
  Discontinuation of treatment because of adverse event: Vomiting, % of patients: 3.9%
  Discontinuation of treatment because of adverse event: Vomiting, number of patients: 4
[3]; [5]
  Adverse event Constipation, % of patients: 12.7%
  Adverse event Constipation, number of patients: 13
  Adverse event Dizziness, % of patients: 16.7%
  Adverse event Dizziness, number of patients: 17
  Adverse event Dry Mouth, % of patients: 5.9%
  Adverse event Dry Mouth, number of patients: 6
  Adverse event Fatigue, % of patients: 2.9%
  Adverse event Fatigue, number of patients: 3
  Adverse event Headache, % of patients: 16.7%
  Adverse event Headache, number of patients: 17
  Adverse event Nausea, % of patients: 23.5%
  Adverse event Nausea, number of patients: 24
  Adverse event Pruritus, % of patients: 7.8%
  Adverse event Pruritus, number of patients: 8
  Adverse event Sommolence, % of patients: 15.7%
  Adverse event Sommolence, number of patients: 16
  Adverse event Vomiting, % of patients: 3.9%
  Adverse event Vomiting, number of patients: 4
[3]; Week 2, 30 mg OXY/d
  Adverse event Constipation, % of patients: 7.1%
  Adverse event Constipation, number of patients: 6
  Adverse event Dizziness, % of patients: 11.8%
  Adverse event Dizziness, number of patients: 10
  Adverse event Dry Mouth, % of patients: 4.7%
  Adverse event Dry Mouth, number of patients: 4
  Adverse event Fatigue, % of patients: 0.0%
  Adverse event Fatigue, number of patients: 0
  Adverse event Headache, % of patients: 3.5%
  Adverse event Headache, number of patients: 3
  Adverse event Nausea, % of patients: 14.1%
  Adverse event Nausea, number of patients: 12
  Adverse event Pruritus, % of patients: 5.9%
  Adverse event Pruritus, number of patients: 5
  Adverse event Sommolence, % of patients: 7.1%
  Adverse event Sommolence, number of patients: 6
  Adverse event Vomiting, % of patients: 3.5%
  Adverse event Vomiting, number of patients: 3
[3]; Week 3, 40 mg OXY/d
  Adverse event Constipation, % of patients: 2.7%
  Adverse event Constipation, number of patients: 2
  Adverse event Dizziness, % of patients: 5.3%
  Adverse event Dizziness, number of patients: 4
  Adverse event Dry Mouth, % of patients: 0.0%
  Adverse event Dry Mouth, number of patients: 0
  Adverse event Headache, % of patients: 8.0%
  Adverse event Headache, number of patients: 6
  Adverse event Nausea, number of patients: 8
  Adverse event Pruritus, % of patients: 4.0%
  Adverse event Pruritus, number of patients: 3
  Adverse event Sommolence, % of patients: 2.7%
  Adverse event Sommolence, number of patients: 2
  Adverse event Vomiting, % of patients: 12.0%
  Adverse event Vomiting, number of patients: 9
[3]; of the 360 patients who received study drug, 3-week treatment
  Patients who discontinued treatment because of adverse events (number): 29
